Laboratory results published in ChEMBL document CHEMBL1201862, “PubChem BioAssay data set” (2004).
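Interpolation was linear, between the two tested concentrations surrounding the appropriate level; five concentrations were tested over 48 hours in 96-well plates. GI50: concentration for 50% inhibition of growth.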 Active and inactive are the calls of the source. No stated cut-off is given here; in the data, active = GI50 up to about 1.1 µM and inactive = higher.

Assays:
Experiment in all cases: NCI-60 cell line screen, 48 h
[1] = tested on: CAKI-1
[2] = tested on: NCI-H23
[3] = tested on: 786-0
[4] = tested on: BT-549
[5] = tested on: Hs-578T
[6] = tested on: RXF 393
[7] = tested on: SN12C
[8] = tested on: UO-31
[9] = tested on: UACC-257
[10] = tested on: U-251
[11] = tested on: K562
[12] = tested on: HCC 2998
[13] = tested on: OVCAR-3
[14] = tested on: MDA-N
[15] = tested on: SF-295
[16] = tested on: NCI-H522
[17] = tested on: A549
[18] = tested on: SF-268
[19] = tested on: SK-OV-3
[20] = tested on: A498

Measured: GI50

CCOC(=O)C(Cc1ccc(OC(=O)c2ccc(OC)cc2OC)cc1)NC(=O)C(F)(F)F (stereo not given)
inactive: [1] 29 µM | [2] 22.1 µM | [3] 31.9 µM | [4] 79.1 µM | [5] 27.5 µM | [6] 19.6 µM | [7] 40.1 µM | [8] 18 µM | [9] 15.3 µM | [10] 32.1 µM | [11] 29.6 µM | [12] 16.5 µM | [13] 19.5 µM | [14] 20 µM | [15] 31.7 µM | [16] 17.9 µM | [17] 36.2 µM | [18] 31.1 µM | [19] 39 µM | [20] 15.7 µM

Cc1ccc(S(=O)(=O)Nc2nnc(S(N)(=O)=O)s2)cc1
inactive: [1] > 100 µM | [2] > 100 µM | [3] > 100 µM | [4] > 100 µM | [5] > 100 µM | [6] > 100 µM | [7] > 100 µM | [8] > 100 µM | [9] > 100 µM | [10] > 100 µM | [11] > 100 µM | [12] > 100 µM | [13] > 100 µM | [14] > 100 µM | [15] > 100 µM | [16] > 100 µM | [17] > 100 µM | [18] > 100 µM | [19] > 100 µM | [20] > 100 µM

COc1ccc(N2C(=O)C3c4[nH]c5ccc(OC)cc5c4C4CCC(C(C)C)CC4C3C2=O)cc1 (stereo not given)
inactive: [1] > 100 µM | [2] > 100 µM | [3] 14.9 µM | [4] > 100 µM | [5] 12.1 µM | [6] 31 µM | [7] > 100 µM | [8] > 100 µM | [9] > 100 µM | [10] 26.4 µM | [11] 18.3 µM | [12] 33.7 µM | [13] > 100 µM | [14] > 100 µM | [15] 31.2 µM | [16] 18.1 µM | [17] > 72.4 µM | [18] 19.5 µM | [19] 36.9 µM | [20] 28 µM

N/N=C(\C(=O)Nc1ccc(Cl)cc1Cl)C(c1cnc2ccccc2n1)[N+](=O)[O-] (stereo not given)
inactive: [1] > 100 µM | [2] > 100 µM | [3] > 100 µM | [4] > 100 µM | [5] > 100 µM | [6] > 100 µM | [7] > 100 µM | [8] 44.2 µM | [9] > 100 µM | [10] > 100 µM | [11] > 100 µM | [12] > 100 µM | [13] > 100 µM | [14] > 100 µM | [15] > 100 µM | [16] > 100 µM | [17] > 100 µM | [18] > 100 µM | [19] > 100 µM | [20] > 100 µM

COc1cccc(/C=C2\SC(=S)N(/C=C3\C(=O)Oc4ccccc4C3=O)C2=O)c1O
inactive: [1] 81.1 µM | [2] 45.2 µM | [3] 67.8 µM | [4] 20 µM | [5] 25.5 µM | [6] 59.4 µM | [7] 56.4 µM | [8] 22.3 µM | [9] 68.2 µM | [10] 31.5 µM | [11] 34.4 µM | [12] 28.8 µM | [13] 34.4 µM | [14] 32.8 µM | [15] 76.6 µM | [16] 33.3 µM | [17] 59.7 µM | [18] 46.7 µM | [19] 49.2 µM | [20] 11.9 µM

CCOC(=O)C(C(=O)OCC)=C1NC2(c3ccccc3Nc3ccc(C)cc32)C(C(=O)OC)S1 (stereo not given)
inactive: [1] 8.69 µM | [2] 25.5 µM | [3] 22.9 µM | [4] 43.6 µM | [5] 10.3 µM | [6] 7.18 µM | [7] 4.11 µM | [8] 16.5 µM | [9] 26.4 µM | [10] 23.7 µM | [11] 18.4 µM | [12] 15.9 µM | [13] 23.1 µM | [14] 32.9 µM | [15] 10.8 µM | [16] 13.6 µM | [17] 13.7 µM | [18] 12.3 µM | [19] > 100 µM | [20] 10.1 µM
